The record followed here is ChEMBL document CHEMBL1201862, “PubChem BioAssay data set” (2004).

Type in all cases: functional
The target in assay [1] is Mitogen-activated protein kinase kinase kinase kinase 4 (Homo sapiens, UniProt O95819).
Assay [2] has as its target Glycogen synthase kinase-3 beta (Homo sapiens, UniProt P49841).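 Note: value comes from a broad kinome profiling panel, with GSK3B as the panel member.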
Assay [3] addresses Fibroblast growth factor receptor 1 (Homo sapiens, UniProt P11362).
Assay [4] addresses T1, Serine/threonine-protein kinase D3 (Homo sapiens, UniProt O94806).
T1 sequence (O94806 whole entry): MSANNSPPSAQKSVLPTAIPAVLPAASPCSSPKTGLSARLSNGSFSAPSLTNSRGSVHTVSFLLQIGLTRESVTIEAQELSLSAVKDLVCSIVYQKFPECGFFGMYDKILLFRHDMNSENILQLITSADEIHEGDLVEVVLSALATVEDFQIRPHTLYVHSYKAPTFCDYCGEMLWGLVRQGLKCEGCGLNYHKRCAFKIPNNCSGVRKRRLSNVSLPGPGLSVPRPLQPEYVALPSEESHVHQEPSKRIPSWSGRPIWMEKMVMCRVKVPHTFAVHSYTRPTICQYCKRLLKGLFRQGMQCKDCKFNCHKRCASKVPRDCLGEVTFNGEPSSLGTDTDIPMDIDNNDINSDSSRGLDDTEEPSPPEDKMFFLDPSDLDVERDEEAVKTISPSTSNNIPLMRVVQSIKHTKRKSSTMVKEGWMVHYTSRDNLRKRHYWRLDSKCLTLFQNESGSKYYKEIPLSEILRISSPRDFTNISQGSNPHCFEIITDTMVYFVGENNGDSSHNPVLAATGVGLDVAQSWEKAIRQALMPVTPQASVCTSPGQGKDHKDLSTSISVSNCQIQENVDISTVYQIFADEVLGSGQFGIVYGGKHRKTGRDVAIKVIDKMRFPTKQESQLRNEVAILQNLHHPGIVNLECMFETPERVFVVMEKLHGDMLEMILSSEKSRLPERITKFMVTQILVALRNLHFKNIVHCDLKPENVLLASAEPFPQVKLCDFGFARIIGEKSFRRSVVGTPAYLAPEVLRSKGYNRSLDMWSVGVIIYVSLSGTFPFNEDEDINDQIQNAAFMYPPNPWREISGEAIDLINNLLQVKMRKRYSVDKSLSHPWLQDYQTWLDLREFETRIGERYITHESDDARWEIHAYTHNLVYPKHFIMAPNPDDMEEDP

The target of assay [5] is Cyclin-dependent kinase 5 (Homo sapiens, UniProt Q00535).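 Note: CDK5 measured as one member of a kinase profiling panel.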
The target in assay [6] is G protein-coupled receptor kinase 5 (Homo sapiens, UniProt P34947). Briefly: Navigating the Kinome. Panel member name: GPRK5.
Assay [7] concerns the target T2, Serine/threonine-protein kinase Chk1 (Homo sapiens, UniProt O14757).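 Note: measured as one member of a kinome-wide kinase profiling panel.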
T2 sequence (O14757 whole entry): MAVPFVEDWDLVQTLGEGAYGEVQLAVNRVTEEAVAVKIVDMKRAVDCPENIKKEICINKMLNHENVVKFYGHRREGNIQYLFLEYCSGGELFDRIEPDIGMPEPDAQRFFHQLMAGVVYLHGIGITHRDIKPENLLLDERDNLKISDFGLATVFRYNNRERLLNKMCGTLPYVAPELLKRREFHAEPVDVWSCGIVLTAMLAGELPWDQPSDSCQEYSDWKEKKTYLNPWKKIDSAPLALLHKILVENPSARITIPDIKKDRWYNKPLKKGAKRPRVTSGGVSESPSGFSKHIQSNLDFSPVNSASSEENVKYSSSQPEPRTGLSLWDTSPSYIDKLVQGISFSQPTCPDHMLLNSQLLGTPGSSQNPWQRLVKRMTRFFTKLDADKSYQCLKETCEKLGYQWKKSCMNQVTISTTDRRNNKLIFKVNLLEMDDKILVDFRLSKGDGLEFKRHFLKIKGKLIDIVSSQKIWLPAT

The target of assay [8] is ALK tyrosine kinase receptor (Homo sapiens, UniProt Q9UM73).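 Note: ALK tested as one member of a kinase panel screen.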
The target of assay [9] is T3, Serine/threonine-protein kinase TBK1 (Homo sapiens, UniProt Q9UHD2).
T3 sequence (Q9UHD2 whole entry): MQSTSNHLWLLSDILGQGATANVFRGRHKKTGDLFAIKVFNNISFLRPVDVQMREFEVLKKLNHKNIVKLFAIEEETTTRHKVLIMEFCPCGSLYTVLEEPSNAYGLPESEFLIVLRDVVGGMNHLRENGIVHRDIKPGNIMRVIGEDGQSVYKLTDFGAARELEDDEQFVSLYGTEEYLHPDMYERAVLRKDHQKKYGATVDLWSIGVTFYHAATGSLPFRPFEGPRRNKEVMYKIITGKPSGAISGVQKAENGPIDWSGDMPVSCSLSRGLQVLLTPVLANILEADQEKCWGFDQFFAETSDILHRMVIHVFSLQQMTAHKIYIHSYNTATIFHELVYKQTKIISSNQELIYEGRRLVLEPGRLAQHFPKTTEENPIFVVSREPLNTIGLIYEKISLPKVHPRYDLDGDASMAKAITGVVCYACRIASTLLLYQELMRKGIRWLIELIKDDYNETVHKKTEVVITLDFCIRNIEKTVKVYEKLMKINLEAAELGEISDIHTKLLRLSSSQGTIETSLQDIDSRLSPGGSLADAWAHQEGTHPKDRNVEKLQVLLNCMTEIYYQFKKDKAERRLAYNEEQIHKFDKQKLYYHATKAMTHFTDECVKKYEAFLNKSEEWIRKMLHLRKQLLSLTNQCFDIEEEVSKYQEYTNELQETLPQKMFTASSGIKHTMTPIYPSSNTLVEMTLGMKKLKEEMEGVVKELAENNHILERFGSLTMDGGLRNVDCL
In words: Navigating the Kinome. Panel member name: TBK1.

The target in assay [10] is Dual specificity tyrosine-phosphorylation-regulated kinase 1A (Homo sapiens, UniProt Q13627).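 Note: measured against DYRK1A as one member of a broad kinome profiling panel.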
Another assay has as its target Activated CDC42 kinase 1 (Homo sapiens, UniProt Q07912). In words: Navigating the Kinome. Panel member name: ACK1.
The target in assay [11] is Tyrosine-protein kinase JAK2 (Homo sapiens, UniProt O60674).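 Note: JAK2 tested as one member of a kinase panel.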

Activity calls are given as the source filed them.

By Ki is commonly meant the equilibrium dissociation constant of an inhibitor or competing ligand from its target. For orientation: pKi means the Ki on a negative log10 scale, so that one unit is a factor of ten.

Sequence of Cyclin-dependent kinase 5 (Q00535 whole entry): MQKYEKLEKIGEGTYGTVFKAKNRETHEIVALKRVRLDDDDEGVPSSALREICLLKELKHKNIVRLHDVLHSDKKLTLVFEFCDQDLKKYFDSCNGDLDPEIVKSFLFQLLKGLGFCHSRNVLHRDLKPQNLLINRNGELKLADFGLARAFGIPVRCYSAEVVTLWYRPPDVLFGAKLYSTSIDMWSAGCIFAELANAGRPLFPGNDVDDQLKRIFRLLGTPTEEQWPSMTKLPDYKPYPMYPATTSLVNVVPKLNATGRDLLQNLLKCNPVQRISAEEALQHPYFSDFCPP
Sequence of Activated CDC42 kinase 1 (Q07912 whole entry): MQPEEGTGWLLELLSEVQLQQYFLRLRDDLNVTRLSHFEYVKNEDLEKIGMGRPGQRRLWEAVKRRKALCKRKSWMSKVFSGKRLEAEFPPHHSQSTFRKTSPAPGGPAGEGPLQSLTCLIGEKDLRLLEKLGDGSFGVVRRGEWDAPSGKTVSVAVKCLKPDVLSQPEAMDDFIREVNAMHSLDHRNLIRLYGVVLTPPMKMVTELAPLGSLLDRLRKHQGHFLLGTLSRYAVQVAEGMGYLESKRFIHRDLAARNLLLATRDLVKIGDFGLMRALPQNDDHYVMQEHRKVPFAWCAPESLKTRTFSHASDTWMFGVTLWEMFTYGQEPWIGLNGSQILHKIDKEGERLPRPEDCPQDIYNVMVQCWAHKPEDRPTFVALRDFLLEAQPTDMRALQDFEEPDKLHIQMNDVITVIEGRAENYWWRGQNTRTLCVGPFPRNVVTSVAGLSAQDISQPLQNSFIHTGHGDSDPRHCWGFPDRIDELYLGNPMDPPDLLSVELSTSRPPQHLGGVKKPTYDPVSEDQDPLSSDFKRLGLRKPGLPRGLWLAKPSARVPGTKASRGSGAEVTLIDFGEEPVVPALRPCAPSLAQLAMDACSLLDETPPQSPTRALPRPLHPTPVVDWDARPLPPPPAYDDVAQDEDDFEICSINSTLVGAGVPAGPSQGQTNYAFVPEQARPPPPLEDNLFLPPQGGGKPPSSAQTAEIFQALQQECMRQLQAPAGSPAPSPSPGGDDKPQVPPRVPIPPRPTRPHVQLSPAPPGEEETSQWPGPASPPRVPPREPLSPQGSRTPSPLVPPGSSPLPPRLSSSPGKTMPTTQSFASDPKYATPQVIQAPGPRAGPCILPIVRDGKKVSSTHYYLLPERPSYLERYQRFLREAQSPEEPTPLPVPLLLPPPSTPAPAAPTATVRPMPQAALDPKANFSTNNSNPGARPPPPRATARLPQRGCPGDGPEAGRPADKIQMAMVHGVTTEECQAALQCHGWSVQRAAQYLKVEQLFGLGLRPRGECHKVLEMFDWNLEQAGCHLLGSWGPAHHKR
Sequence of Tyrosine-protein kinase JAK2 (O60674 whole entry): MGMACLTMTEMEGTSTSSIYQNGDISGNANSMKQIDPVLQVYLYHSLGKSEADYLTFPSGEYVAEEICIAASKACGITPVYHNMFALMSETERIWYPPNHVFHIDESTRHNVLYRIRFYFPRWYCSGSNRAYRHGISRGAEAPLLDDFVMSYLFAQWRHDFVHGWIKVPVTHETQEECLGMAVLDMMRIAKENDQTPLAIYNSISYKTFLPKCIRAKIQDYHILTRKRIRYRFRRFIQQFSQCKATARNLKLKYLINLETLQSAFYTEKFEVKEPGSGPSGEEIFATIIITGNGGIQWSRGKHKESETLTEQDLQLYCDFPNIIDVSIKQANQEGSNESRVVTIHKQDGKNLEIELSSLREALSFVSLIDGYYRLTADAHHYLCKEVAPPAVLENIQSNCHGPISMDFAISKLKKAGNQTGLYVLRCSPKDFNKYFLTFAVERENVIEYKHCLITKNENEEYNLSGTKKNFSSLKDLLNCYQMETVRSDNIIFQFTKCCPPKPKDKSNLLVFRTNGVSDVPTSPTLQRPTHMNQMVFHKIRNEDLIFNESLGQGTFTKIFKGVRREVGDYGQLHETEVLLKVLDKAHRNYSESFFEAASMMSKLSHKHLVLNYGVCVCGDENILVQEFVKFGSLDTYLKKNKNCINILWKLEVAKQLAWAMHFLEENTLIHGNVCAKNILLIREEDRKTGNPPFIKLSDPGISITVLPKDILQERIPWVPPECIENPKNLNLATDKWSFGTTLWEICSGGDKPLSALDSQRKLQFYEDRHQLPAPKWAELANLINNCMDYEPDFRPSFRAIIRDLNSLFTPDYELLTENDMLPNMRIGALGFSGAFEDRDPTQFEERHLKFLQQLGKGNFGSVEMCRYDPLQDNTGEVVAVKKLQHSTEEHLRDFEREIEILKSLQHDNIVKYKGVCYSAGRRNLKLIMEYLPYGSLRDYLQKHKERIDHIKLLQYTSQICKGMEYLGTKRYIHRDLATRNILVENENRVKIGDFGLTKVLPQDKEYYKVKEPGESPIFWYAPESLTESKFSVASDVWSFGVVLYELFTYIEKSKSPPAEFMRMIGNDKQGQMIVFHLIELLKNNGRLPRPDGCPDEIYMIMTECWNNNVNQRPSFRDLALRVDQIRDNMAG
Sequence of Glycogen synthase kinase-3 beta (P49841 whole entry): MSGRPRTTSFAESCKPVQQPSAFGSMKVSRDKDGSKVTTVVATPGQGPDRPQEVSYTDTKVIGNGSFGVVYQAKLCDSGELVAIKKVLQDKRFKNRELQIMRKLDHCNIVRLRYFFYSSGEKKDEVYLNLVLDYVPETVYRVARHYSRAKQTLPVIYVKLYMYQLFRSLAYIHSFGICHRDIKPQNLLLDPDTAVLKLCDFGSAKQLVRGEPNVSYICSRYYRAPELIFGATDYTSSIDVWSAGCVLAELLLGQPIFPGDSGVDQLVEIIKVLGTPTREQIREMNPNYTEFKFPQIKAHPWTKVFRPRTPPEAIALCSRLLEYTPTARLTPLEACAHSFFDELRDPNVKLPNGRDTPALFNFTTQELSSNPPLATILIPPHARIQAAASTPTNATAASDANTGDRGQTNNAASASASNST
Sequence of G protein-coupled receptor kinase 5 (P34947 whole entry): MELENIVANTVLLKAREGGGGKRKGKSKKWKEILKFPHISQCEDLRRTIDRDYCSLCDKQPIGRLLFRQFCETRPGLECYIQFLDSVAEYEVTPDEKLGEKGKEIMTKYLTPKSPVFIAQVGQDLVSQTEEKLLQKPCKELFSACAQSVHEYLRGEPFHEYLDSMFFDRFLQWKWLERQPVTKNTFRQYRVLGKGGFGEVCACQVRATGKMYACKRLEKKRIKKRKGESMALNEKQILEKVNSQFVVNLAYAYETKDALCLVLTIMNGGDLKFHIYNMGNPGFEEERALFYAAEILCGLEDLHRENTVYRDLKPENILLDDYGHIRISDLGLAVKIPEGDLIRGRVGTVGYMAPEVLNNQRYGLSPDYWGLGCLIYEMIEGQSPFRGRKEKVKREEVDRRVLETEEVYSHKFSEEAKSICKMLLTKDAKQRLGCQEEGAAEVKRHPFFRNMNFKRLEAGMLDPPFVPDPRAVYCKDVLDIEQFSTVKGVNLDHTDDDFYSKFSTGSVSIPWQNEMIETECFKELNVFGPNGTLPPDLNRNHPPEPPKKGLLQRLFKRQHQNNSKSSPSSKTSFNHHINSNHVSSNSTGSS
Sequence of Fibroblast growth factor receptor 1 (P11362 whole entry): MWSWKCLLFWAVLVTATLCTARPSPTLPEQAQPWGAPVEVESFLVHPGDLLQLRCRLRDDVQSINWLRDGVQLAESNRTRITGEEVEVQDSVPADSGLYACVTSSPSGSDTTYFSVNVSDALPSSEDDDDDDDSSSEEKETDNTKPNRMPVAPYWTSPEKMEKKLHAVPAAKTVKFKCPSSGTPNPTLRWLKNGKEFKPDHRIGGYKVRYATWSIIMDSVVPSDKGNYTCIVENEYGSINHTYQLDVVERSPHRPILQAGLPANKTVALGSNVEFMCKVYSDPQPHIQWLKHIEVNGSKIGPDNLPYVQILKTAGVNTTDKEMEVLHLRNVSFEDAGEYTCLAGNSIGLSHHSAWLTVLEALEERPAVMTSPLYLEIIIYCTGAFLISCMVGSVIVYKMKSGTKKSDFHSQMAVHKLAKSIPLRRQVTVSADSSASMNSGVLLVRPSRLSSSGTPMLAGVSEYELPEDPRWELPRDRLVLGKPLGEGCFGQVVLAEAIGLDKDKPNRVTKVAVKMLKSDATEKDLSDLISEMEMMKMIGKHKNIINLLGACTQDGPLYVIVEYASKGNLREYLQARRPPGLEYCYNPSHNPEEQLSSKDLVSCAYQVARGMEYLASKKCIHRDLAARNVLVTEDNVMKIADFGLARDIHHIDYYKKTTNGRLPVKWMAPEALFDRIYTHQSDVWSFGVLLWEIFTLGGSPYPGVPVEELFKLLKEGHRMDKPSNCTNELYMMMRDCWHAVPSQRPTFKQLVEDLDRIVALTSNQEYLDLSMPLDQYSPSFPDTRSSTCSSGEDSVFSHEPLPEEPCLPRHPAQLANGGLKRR

Turning to `OC1CCC(Nc2nc(Cl)cc(-c3c[nH]c4ncccc34)n2)CC1` (stereo not drawn), the Ki in [1] was > 0.00316 µM (inactive); in assay [2] it was 0.0501 µM (active); in assay [3], 2 µM (active); in assay [4], 0.0158 µM (active); in assay [5], 0.01 µM (active); in [6] it was 1.58 µM (active). Moreover, the Ki in assay [7] was 0.398 µM (active); in assay [8], > 1.26 µM (inactive); in [9] it was 1 µM (active); in [10], > 0.002 µM (inactive); at Activated CDC42 kinase 1, 3.16 µM (active); in assay [11] it was 0.2 µM (active). For the same compound, the pKi is 7.3 in [2]; 5.7 in assay [3]; 7.8 in [4]; 8 in assay [5]; 5.8 in assay [6]; 6.4 in [7]. In addition, the figures for the pKi (in assay [9]; on Activated CDC42 kinase 1; in assay [11]) were 6, 5.5 and 6.7, respectively.

For `COc1cccc(CNC(=O)c2cnc(-c3ccncc3)nc2)c1`, the Ki in [1] is > 5.01 µM (inactive); in [2], > 3.98 µM (inactive); in [3], > 3.98 µM (inactive); in assay [4] it was > 3.98 µM (inactive); in [5], > 3.16 µM (inactive); in [6], 3.98 µM (active). The Ki in assay [7] was > 3.16 µM (inactive); in [8] it was > 6.31 µM (inactive); in assay [9], > 3.16 µM (inactive); in assay [10] it was > 2 µM (inactive); at Activated CDC42 kinase 1, > 3.98 µM (inactive); in [11], > 2.51 µM (inactive).
